Measured values published in patent publication US20250034216A1, “STEREOSELECTIVE COVALENT LIGANDS FOR ONCOGENIC AND IMMUNOLOGICAL PROTEINS” (The Scripps Research Institute, priority 2021, published 2025).

molecular target: T1, CLUH_C333 (Homo sapiens, UniProt O75153); test: IA-DTB cysteine engagement; type: binding; settings: 22Rv1 cells, 20 μM probe, 1 h, relative to DMSO
T1 construct: endogenous in cells; host or cells: 22Rv1
T1 sequence (O75153 1-1309): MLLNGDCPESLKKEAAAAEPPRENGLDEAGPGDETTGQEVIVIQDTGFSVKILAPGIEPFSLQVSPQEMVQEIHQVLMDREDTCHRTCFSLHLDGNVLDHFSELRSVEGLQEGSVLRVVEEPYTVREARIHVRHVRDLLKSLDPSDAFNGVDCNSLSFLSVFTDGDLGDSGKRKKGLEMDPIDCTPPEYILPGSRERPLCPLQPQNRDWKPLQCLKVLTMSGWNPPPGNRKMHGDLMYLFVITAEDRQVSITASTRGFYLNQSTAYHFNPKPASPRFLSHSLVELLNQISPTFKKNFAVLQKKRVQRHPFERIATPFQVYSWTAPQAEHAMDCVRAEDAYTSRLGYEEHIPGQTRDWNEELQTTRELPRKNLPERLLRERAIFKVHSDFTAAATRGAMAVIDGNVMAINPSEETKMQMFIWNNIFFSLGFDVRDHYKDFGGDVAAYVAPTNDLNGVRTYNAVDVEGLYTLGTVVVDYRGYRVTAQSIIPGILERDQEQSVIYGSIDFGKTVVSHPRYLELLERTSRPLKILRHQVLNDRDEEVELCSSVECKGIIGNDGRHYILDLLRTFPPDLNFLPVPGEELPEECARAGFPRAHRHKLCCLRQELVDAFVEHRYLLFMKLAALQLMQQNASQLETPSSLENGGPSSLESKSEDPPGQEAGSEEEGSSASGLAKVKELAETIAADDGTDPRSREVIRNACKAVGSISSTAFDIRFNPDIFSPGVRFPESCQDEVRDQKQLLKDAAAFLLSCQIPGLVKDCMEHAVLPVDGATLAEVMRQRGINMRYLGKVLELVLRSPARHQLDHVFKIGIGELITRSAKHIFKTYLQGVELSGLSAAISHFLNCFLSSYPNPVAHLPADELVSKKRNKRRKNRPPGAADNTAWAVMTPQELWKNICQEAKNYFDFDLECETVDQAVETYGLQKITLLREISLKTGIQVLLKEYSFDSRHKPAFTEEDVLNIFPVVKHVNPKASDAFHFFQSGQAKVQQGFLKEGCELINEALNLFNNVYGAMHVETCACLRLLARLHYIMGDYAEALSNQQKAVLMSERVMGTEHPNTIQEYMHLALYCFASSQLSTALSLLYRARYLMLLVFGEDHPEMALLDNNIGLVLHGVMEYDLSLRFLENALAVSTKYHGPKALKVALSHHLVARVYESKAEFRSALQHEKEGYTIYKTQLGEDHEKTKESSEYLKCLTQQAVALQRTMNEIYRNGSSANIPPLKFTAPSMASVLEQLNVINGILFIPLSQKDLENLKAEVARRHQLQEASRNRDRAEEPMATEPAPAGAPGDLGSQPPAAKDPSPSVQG
Method in brief: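 Competitive chemoproteomics: residual cysteine reactivity toward IA-DTB in lysates from probe-treated cells was quantified by TMT reporter ions relative to DMSO-treated controls. Replicates sharing cell line, probe, concentration and duration were averaged.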

SMILES	% engagement CLUH_C333
C=CC(=O)N1C[C@H](c2ccc(Br)cc2)[C@H]1C(=O)Nc1cccc2cccnc12 [MY-3A, (2S,3S)-1-acryloyl-3-(4-bromophenyl)-N-(quinolin-8-yl)azetidine-2-carboxamide]	0.5%
C=CC(=O)N1C[C@H](c2ccc(Br)cc2)[C@@H]1C(=O)Nc1cccc2cccnc12 [MY-1B, (2R,3S)-1-acryloyl-3-(4-bromophenyl)-N-(quinolin-8-yl)azetidine-2-carboxamide]	13%
C=CC(=O)N1C[C@H](c2ccc(Br)cc2)[C@H]1C(=O)Nc1cccc2cccnc12 [MY-3B, (2S,3S)-1-acryloyl-3-(4-bromophenyl)-N-(quinolin-8-yl)azetidine-2-carboxamide]	−4.5%
C=CC(=O)N1C[C@@H](c2ccc(Br)cc2)[C@H]1C(=O)Nc1cccc2cccnc12 [MY-1A, (2S,3R)-1-acryloyl-3-(4-bromophenyl)-N-(quinolin-8-yl)azetidine-2-carboxamide]	81%
